Measured values reported in US12065654B2, “Plants having increased tolerance to herbicides” (BASF SE, priority 2014, dated 2024).

Legend:
Assay type in all cases: biochemical
Arabidopsis HPPD F381I = molecular target: T1, Arabidopsis HPPD F381I (Arabidopsis thaliana, UniProt P93836, F381I); conditions: Arabidopsis HPPD variant F381I; normalized on wild-type;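 note: reaction started with 4-HPP at 0.05 mM after 30 min preincubation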
T1 construct: His6 (N); made in house; host or cells: E. coli BL21 (DE3)
Method: (§1) The activity assay for HPPD is based on the analysis of homogentisic acid by reversed phase HPLC.
(§2) The assay mixture can contain 150 mM potassium phosphate buffer pH 7.0, 50 mM L-ascorbic acid, 100 μM Catalase (Sigma-Aldrich), 1 μM FeSO4 and 0.2 units of purified HPPD enzyme in a total volume of 505 μl. 1 unit is defined as the amount of enzyme that is required to produce 1 nmol of HGA per minute at 20° C.
(§3) The reaction is allowed to proceed for 45 min at room temperature. The reaction is stopped by the addition of 50 μl of 4.5 M phosphoric acid. The sample is filtered using a […] pore size PVDF filtration device. 5 μl of the cleared sample is analyzed on an UPLC HSS T3 column (particle size 1.8 μm, dimensions 2, 1×50 mm; Waters) by isocratic elution using 90% 20 mM NaH2PO4 pH 2.2, 10% methanol (v/v).
(§4) HGA is detected electrochemically at 750 mV (mode: DC; polarity: positive) and quantified by integrating peak areas (Empower software; Waters).
(§5) Inhibitors are dissolved in DMSO (dimethylsulfoxide) to a concentration of 0.5 mM. From this stock solution serial five-fold dilutions are prepared in DMSO, which are used in the assay. The respective inhibitor solution accounts for 1% of the assay volume. Thus, final inhibitor concentrations range from 5 μM to 320 pM, respectively. Activities are normalized by setting the uninhibited enzyme activity to 100%. IC50 values are calculated using non-linear regression.
(§6) Purified, mutant HPPD enzymes are obtained by the methods described above. Dose response and kinetic measurements are carried out using the described HPPD activity assay. Apparent michaelis constants (Km) and maximal reaction velocities (Vmax) are calculated by non-linear regression with the software GraphPad Prism 5 (GraphPad Software, La Jolla, USA) using a substrate inhibition model. […] Weighted means (by standard error) of K. and IC50 values are calculated from at least three independent experiments. The Cheng-Prusoff equation for competitive inhibition (Cheng, Y. C.; Prusoff, W. H. Biochem Pharmacol 1973, 22, 3099-3108) is used to calculate dissociation constants (Ki).
(§7) Field performance of the optimized HPPD enzyme, which is used as a herbicide tolerance trait may depend not only on its lack of sensitivity towards HPPD inhibiting herbicides but also on its activity. To assess the potential performance of a herbicide tolerance trait a tolerance index (TI) is calculated using the following formula: […]
(§8) Easy comparison and ranking of each trait is enabled by normalizing tolerance indexes on the respective wild-type HPPD.

Arabidopsis HPPD F381L = molecular target: T2, Arabidopsis HPPD F381L (Arabidopsis thaliana, UniProt P93836, F381L); conditions: Arabidopsis HPPD variant F381L; normalized on wild-type
T2 construct: His6 (N); made in house; host or cells: E. coli BL21 (DE3)
Method: as §1, §2, §3, §4, §5, §6, §7, §8

[1] = molecular target: T3, Arabidopsis HPPD M335H, P336A (Arabidopsis thaliana, UniProt P93836, M335H/P336A); conditions: Arabidopsis HPPD variant M335H, normalized on wild-type;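 note: reaction started with 4-HPP at 0.05 mM after 30 min preincubation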
T3 construct: His6 (N); made in house; host or cells: E. coli BL21 (DE3)
Method: as §1, §2, §3, §4, §5, §6, §7, §8

[2] = molecular target: T4, Arabidopsis HPPD M335H, P336A, E363Q (Arabidopsis thaliana, UniProt P93836, E363Q/M335H/P336A); conditions: Arabidopsis HPPD variant M335H, normalized on wild-type;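 note: reaction started with 4-HPP at 0.05 mM after 30 min preincubation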
T4 construct: His6 (N); made in house; host or cells: E. coli BL21 (DE3)
Method: as §1, §2, §3, §4, §5, §6, §7, §8

[3] = molecular target: T5, Arabidopsis HPPD M335H, P336G, E363Q (Arabidopsis thaliana, UniProt P93836, E363Q/M335H/P336G); conditions: Arabidopsis HPPD variant M335H, normalized on wild-type
T5 construct: His6 (N); made in house; host or cells: E. coli BL21 (DE3)
Method: as §1, §2, §3, §4, §5, §6, §7, §8

Hordeum HPPD F404L = molecular target: T6, Hordeum HPPD F404L (Hordeum vulgare, UniProt O48604, A164G/F404L/R146V/R147D/R148G); test: HPPD activity assay, mutant; conditions: Hordeum HPPD variant F404L; normalized on wild-type
T6 construct: subcloned into a modified pET24D (Novagen) expression vector resulting in N-terminally His-tagged expression constructs; His tag (N); made in house; host or cells: E. coli BL21 (DE3)
Method: as §1, §2, §3, §4, §5, §6, §7, §8

Hordeum HPPD L320H = molecular target: T7, Hordeum HPPD L320H (Hordeum vulgare, UniProt O48604, A164G/L320H/R146V/R147D/R148G); test: HPPD activity assay, mutant; conditions: Hordeum HPPD variant L320H; normalized on wild-type;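 note: reaction started with 4-HPP at 0.05 mM after 30 min preincubation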
T7 construct: His-tag (N); made in house; host or cells: E. coli BL21 (DE3)
Method: as §1, §2, §3, §4, §5, §6, §7, §8

[4] = molecular target: T8, Hordeum HPPD L320H, P321A (Hordeum vulgare, UniProt O48604, L320H/P321A); test: HPPD activity assay, mutant; conditions: Hordeum HPPD variant L320H, normalized on wild-type
T8 construct: His-tag (N); made in house; host or cells: E. coli BL21 (DE3)
Method: as §1, §2, §3, §4, §5, §6, §7, §8

Hordeum HPPD L320N = molecular target: T9, Hordeum HPPD L320N (Hordeum vulgare, UniProt O48604, A164G/L320N/R146V/R147D/R148G); test: HPPD activity assay, mutant; conditions: Hordeum HPPD variant L320N; normalized on wild-type;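 note: reaction started with 4-HPP at 0.05 mM after 30 min preincubation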
T9 construct: His-tag (N); made in house; host or cells: E. coli BL21 (DE3)
Method: as §1, §2, §3, §4, §5, §6, §7, §8

Hordeum HPPD L320Q = molecular target: T10, Hordeum HPPD L320Q (Hordeum vulgare, UniProt O48604, A164G/L320Q/R146V/R147D/R148G); test: HPPD activity assay, mutant; conditions: Hordeum HPPD variant L320Q; normalized on wild-type
T10 construct: His-tag (N); made in house; host or cells: E. coli BL21 (DE3)
Method: as §1, §2, §3, §4, §5, §6, §7, §8

Hordeum HPPD L334E = molecular target: T11, Hordeum HPPD L334E (Hordeum vulgare, UniProt O48604, A164G/L334E/R146V/R147D/R148G); test: HPPD activity assay, mutant; conditions: Hordeum HPPD variant L334E; normalized on wild-type;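 note: reaction started with 4-HPP at 0.05 mM after 30 min preincubation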
T11 construct: His-tag (N); made in house; host or cells: E. coli BL21 (DE3)
Method: as §1, §2, §3, §4, §5, §6, §7, §8

[5] = molecular target: T12, Hordeum HPPD L353M, P321R, L320N (Hordeum vulgare, UniProt O48604, L320N/L353M/P321R); test: HPPD activity assay, mutant; conditions: Hordeum HPPD variant L353M, normalized on wild-type
T12 construct: His-tag (N); made in house; host or cells: E. coli BL21 (DE3)
Method: as §1, §2, §3, §4, §5, §6, §7, §8

[6] = molecular target: T13, Hordeum HPPD L353M, P321R, L320Q (Hordeum vulgare, UniProt O48604, L320Q/L353M/P321R); test: HPPD activity assay, mutant; conditions: Hordeum HPPD variant L353M, normalized on wild-type;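 note: reaction started with 4-HPP at 0.05 mM after 30 min preincubation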
T13 construct: His-tag (N); made in house; host or cells: E. coli BL21 (DE3)
Method: as §1, §2, §3, §4, §5, §6, §7, §8

Hordeum HPPD R309K = molecular target: T14, Hordeum HPPD R309K (Hordeum vulgare, UniProt O48604, A164G/R146V/R147D/R148G/R309K); test: HPPD activity assay, mutant; conditions: Hordeum HPPD variant R309K; normalized on wild-type
T14 construct: subcloned into a modified pET24D (Novagen) expression vector resulting in N-terminally His-tagged expression constructs; His tag (N); made in house; host or cells: E. coli BL21 (DE3)
Method: as §1, §2, §3, §4, §5, §6, §7, §8

T4 sequence (P93836 whole entry M335H/P336A/E363Q): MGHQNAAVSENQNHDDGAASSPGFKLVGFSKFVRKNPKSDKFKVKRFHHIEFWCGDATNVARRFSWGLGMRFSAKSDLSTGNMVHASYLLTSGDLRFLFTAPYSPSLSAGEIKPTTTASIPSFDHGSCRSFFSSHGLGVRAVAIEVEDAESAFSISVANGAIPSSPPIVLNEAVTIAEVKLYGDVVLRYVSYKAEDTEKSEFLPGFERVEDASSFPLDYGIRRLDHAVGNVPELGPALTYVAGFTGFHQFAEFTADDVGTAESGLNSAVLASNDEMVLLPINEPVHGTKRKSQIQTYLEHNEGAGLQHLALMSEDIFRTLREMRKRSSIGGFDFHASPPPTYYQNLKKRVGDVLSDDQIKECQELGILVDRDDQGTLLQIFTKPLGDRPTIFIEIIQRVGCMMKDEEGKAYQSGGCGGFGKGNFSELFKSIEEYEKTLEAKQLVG
T13 sequence (O48604 whole entry R146V/R147D/R148G/A164G/L320Q/P321R/L353M): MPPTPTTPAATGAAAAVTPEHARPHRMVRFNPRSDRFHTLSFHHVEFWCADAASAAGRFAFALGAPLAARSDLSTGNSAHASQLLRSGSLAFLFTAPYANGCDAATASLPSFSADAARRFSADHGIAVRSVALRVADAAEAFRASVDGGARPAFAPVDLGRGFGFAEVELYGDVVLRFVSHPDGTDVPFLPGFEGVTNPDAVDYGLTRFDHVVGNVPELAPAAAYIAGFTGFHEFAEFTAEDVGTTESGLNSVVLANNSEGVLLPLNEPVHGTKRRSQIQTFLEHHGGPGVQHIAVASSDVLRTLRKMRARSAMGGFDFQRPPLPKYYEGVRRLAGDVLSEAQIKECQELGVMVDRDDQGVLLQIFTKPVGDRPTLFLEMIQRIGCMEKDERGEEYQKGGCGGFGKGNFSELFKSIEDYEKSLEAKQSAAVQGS
T8 sequence (O48604 whole entry R146V/R147D/R148G/A164G/L320H/P321A): as the sequence (O48604 whole entry R146V/R147D/R148G/A164G/L320Q/P321R/L353M) above, with Q320H, R321A, M353L counted along it
T6 sequence (O48604 whole entry R146V/R147D/R148G/A164G/F404L): as the sequence (O48604 whole entry R146V/R147D/R148G/A164G/L320Q/P321R/L353M) above, with Q320L, R321P, M353L, F404L counted along it
T9 sequence (O48604 whole entry R146V/R147D/R148G/A164G/L320N): as the sequence (O48604 whole entry R146V/R147D/R148G/A164G/L320Q/P321R/L353M) above, with Q320N, R321P, M353L counted along it
T3 sequence (P93836 whole entry M335H/P336A): as the sequence (P93836 whole entry M335H/P336A/E363Q) above, with Q363E counted along it
T10 sequence (O48604 whole entry R146V/R147D/R148G/A164G/L320Q): as the sequence (O48604 whole entry R146V/R147D/R148G/A164G/L320Q/P321R/L353M) above, with R321P, M353L counted along it
T7 sequence (O48604 whole entry R146V/R147D/R148G/A164G/L320H): as the sequence (O48604 whole entry R146V/R147D/R148G/A164G/L320Q/P321R/L353M) above, with Q320H, R321P, M353L counted along it
T2 sequence (P93836 whole entry F381L): as the sequence (P93836 whole entry M335H/P336A/E363Q) above, with H335M, A336P, Q363E, F381L counted along it
T11 sequence (O48604 whole entry R146V/R147D/R148G/A164G/L334E): as the sequence (O48604 whole entry R146V/R147D/R148G/A164G/L320Q/P321R/L353M) above, with Q320L, R321P, L334E, M353L counted along it
T5 sequence (P93836 whole entry M335H/P336G/E363Q): as the sequence (P93836 whole entry M335H/P336A/E363Q) above, with A336G counted along it
T14 sequence (O48604 whole entry R146V/R147D/R148G/A164G/R309K): as the sequence (O48604 whole entry R146V/R147D/R148G/A164G/L320Q/P321R/L353M) above, with R309K, Q320L, R321P, M353L counted along it
T1 sequence (P93836 whole entry F381I): as the sequence (P93836 whole entry M335H/P336A/E363Q) above, with H335M, A336P, Q363E, F381I counted along it
T12 sequence (O48604 whole entry R146V/R147D/R148G/A164G/L320N/P321R/L353M): as the sequence (O48604 whole entry R146V/R147D/R148G/A164G/L320Q/P321R/L353M) above, with Q320N counted along it

Row | SMILES | Normalized tolerance index (TI) (Arabidopsis HPPD F381I) | Normalized tolerance index (TI) (Arabidopsis HPPD F381L) | Normalized tolerance index (TI) [1] | Normalized tolerance index (TI) [2] | Normalized tolerance index (TI) [3] | Normalized tolerance index (TI) (Hordeum HPPD F404L) | Normalized tolerance index (TI) (Hordeum HPPD L320H) | Normalized tolerance index (TI) [4] | Normalized tolerance index (TI) (Hordeum HPPD L320N) | Normalized tolerance index (TI) (Hordeum HPPD L320Q) | Normalized tolerance index (TI) (Hordeum HPPD L334E) | Normalized tolerance index (TI) [5] | Normalized tolerance index (TI) [6] | Normalized tolerance index (TI) (Hordeum HPPD R309K)
1 | CS(=O)(=O)c1ccc(C(=O)C2C(=O)CCCC2=O)c(Cl)c1COCC(F)(F)F [Inhibitor 4, 2-[2-chloro-4-methylsulfonyl-3-(2,2,2-trifluoroethoxymethyl)benzoyl]cyclohexane-1,3-dione] | 0.1 | 0.1 | 0.1 | 0.3 | 0.1 | 1.2 | 5.1 | 4.3 | 1.5 | 1 | 2.1 | 2.2 | 1.3 | 4.6
2 | Cc1c(C(=O)c2cnn(C)c2O)ccc(S(C)(=O)=O)c1C1=NOCC1 [Inhibitor 1, [3-(4,5-dihydroisoxazol-3-yl)-2-methyl-4-methylsulfonyl-phenyl]-(5-hydroxy-1-methyl-pyrazol-4-yl)methanone] | 10.8 | 11 | 3.4 | 6.4 | 3 | 3 | 5.4 | 5.1 | 1.3 | 1.2 | 3.6 | 2.6 | 5.3 | 1.5
3 | CS(=O)(=O)c1ccc(C(=O)C2C(=O)CCCC2=O)c([N+](=O)[O-])c1 [Inhibitor 2, 2-(4-methylsulfonyl-2-nitro-benzoyl)cyclohexane-1,3-dione] | 0.1 | 0.1 | 0.1 | 0.3 | 0.1 | 0.9 | 1.2 | 3.5 | 0.3 | 0.3 | 4 | 0.4 | 2.2 | 1.3
4 | COCCOCc1nc(C(F)(F)F)ccc1C(=O)C1=C(O)C2CCC(C2)C1=O (centres unmarked) [Inhibitor 3, 2-hydroxy-3-[2-(2-methoxyethoxymethyl)-6-(trifluoromethyl)pyridine-3-carbonyl]bicyclo[3.2.1]oct-2-en-4-one] | 0.1 | 0.1 | 0.1 | 0.5 | 0.1 | 0.4 | 3 | 2.5 | 1.2 | 1.1 | 1.2 | 0.6 | 0.6 | 2.5
